# Reference: patent publication US20060166941A1, “Treatment and/or prevention of non-viral epithelial damage” (Epistem Limited, priority 2003, published 2006)
# “And” between values parts separate entries of the source, which are not always exact repeats. Equal entries are not always repeated. Structures can show the parent of a compound that is named as a salt.
# How the values were obtained:
# intestinal crypt cells = experiment: Epithelial cell kinetic evaluation following oral administration (BrdUrd labelling, tolerability); format: in vivo; conditions: 500 mg/kg oral gavage once a day for 4 days
# Experimental: Epithelial Cell Kinetic Evaluation Following Oral Administration of Foscarnet Phosphonoformic Acid Trisodium Salt Hexahydrate).
# Intestinal epithelial cell stimulation following an oral application of foscarnet (phosphonoformic acid trisodium salt hexahydrate) was illustrated by the following experiment.
# Two experimental groups, each of three mice, were established as set out below:
# Group 1: Received oral gavage, containing 500 mg foscarnet/kilogram bodyweight, in sterile water, once a day for 4 days. On the fifth day the animals received a pulse of 10 mg Bromodeoxyuridine (BrdUrd) and 40 minutes laster were killed and small intestine and kidneys harvested for analysis.
# Group 2: Received oral gavage of sterile water, once a day for 4 days On the fifth day the animals received a pulse of 10 mg Bromodeoxyuridine and 40 minutes laster were killed and small intestine and kidneys harvested for analysis.
# Slides were immunohistochemically labelled for BrdUrd and counterstained with thionin to assess intestinal epithelial cell kinetic changes with oral administration of foscarnet. To assess epithelial cell kinetic changes, 50 small intestinal crypts per animal were quantified on a cell positional basis for the number of positively labelled S-phase cells at each cell position in the crypt. Quantification starts at the bottom of the crypt (cell position 1) and continues up one side of the crypt assessing each cell in turn to the crypt villus junction.
# oral mucosa = experiment: In vivo protection of oral mucosa following radiation damage (20 Gy head only), ventral tongue cellularity; set-up: species or system mice; conditions: 50 mg/kg 1 hr prior to 20 Gy (head only) and once a day until sampling; versus vehicle
# Text: In Vivo Protection of Oral Mucosa Following Radiation Damage. The ability of foscarnet (phosphonoformic acid trisodium salt hexahydrate) to prevent radiological damage to oral mucosa was illustrated by the following experiment. The model of cytotoxic insult used was treatment with 20 Gy X-ray radiation (head only) at a dose rate of 0.7 Gy/minute. Such radiation treatment provides a model of radiotherapy administered to patients undergoing treatment for cancer Experimental groups, each of four mice, were established as set out below: Group 1: Received intra-peritoneal injection, containing 50 mg foscarnet/kilogram bodyweight, in sterile water, one hour prior to radiation. Received one further identical injection on each of the two days following radiation. On the third day after radiation the animals were killed, and oral tissue harvested for analysis. […] Using a Zeiss AxioHOME the number of bromodeoxyuridine labelled and unlabelled cells were assessed in both the basal and suprabasal layers of the ventral surface of the tongue. The area from the basal layer to the stratum corneum stratum granulosum interface was measured along with the length of the basal layer. […] From these measurements the damage that the radiation had caused to the tongue could be assessed as overall cellularity of the tongue or the total number of cells/unit area (mm^2). […]
# [1] = system: clonogenic stem cells of the digestive epithelium; experiment: In vivo protection of intestinal epithelium clonogenic stem cells, radiation damage, independent experiment 1 (regenerating crypts); set-up: species or system mice; conditions: for corrected crypts/circumference / no. crypts/circumference: day 4; for Protection Factor: 13Gy, corrected crypts treated / vehicle
# Text: In Vivo Protection of Intestinal Epithelium Clonogenic Stem Cells—Radiation Damage Independent Experiment 1.
# The ability of foscarnet (phosphonoformic acid trisodium salt hexahydrate) to prevent radiological damage to clonogenic stem cells of the digestive epithelium was illustrated by the following experiment.
# The model of radiological insult used was treatment with 13 Gy X-ray whole body radiation at a dose rate of 0.7 Gy/minute. Such radiation treatment provides a model of radiotherapy administered to patients undergoing treatment for cancer.
# Four experimental groups, each of six mice, were established as set out below:
# Group 1: Received intra-peritoneal injection, containing 50 mg foscarnet/kilogram bodyweight, in sterile water, one hour prior to radiation treatment. Received one further identical injection on each of the three days following radiation treatment.
# Group 2: Received intra-peritoneal injection, containing 100 mg foscarnet/kilogram bodyweight, in sterile water, one hour prior to radiation treatment. Received one further identical injection on each of the three days following radiation treatment.
# Group 3: Vehicle control. Received intra-peritoneal injection, of sterile water, one hour prior to radiation treatment. Received one further identical injection on each of the three days following radiation treatment.
# Group 4: Untreated controls. Received neither injections nor exposure to radiation.
# On the fourth day after treatment the animals of each group were killed, and intestinal tissue harvested for histological analysis. Tissue sections were stained with haemotoxylin and eosin, and were analysed for the presence of regenerating intestinal crypts. Regenerating intestinal crypts are derived from one or more surviving clonogenic stem cells, whereas sterilised crypts (containing no surviving stem cells) disappear within two days of irradiation. The number of regenerating crypts per intestinal circumference was counted, and the mean crypt width measured. Scores for each animal were then corrected to account for the probability of preferentially scoring larger crypts according to the following equation: [formula]
# For each treatment a Protection Factor was calculated using the following equation: corrected crypts/circumference treated corrected crypts/circumference untreated (vehicle)
# [2] = 13Gy plus 50 mg foscarnet -1 hr, 1, 2, 3 day, group Average
# [3] = 13Gy plus 50 mg foscarnet -1 hr, 1, 2, 3 day, individual mice
# [4] = 13Gy plus 100 mg foscarnet -1 hr, 1, 2, 3 day, group Average
# [5] = 13Gy plus 100 mg foscarnet -1 hr, 1, 2, 3 day, individual mice
structure (smiles),measurement,setting,value
"O=C(O)P(=O)(O)O [foscarnet, phosphonoformic acid trisodium salt hexahydrate]",deaths or signs of illness,intestinal crypt cells,no deaths or signs of illness
same,tolerability of relatively high oral doses,intestinal crypt cells,tolerated without notable toxicity
same,kidney damage judged by histological sectioning,intestinal crypt cells; end of treatment period,neither of the groups showed overt signs of kidney damage
same,BrdUrd labelling index in intestinal crypt cells (FIG. 5),intestinal crypt cells; versus vehicle control,stimulating effect on intestinal crypt cells
same,"average number of cells/unit area, ventral tongue epithelium (FIG. 7)",oral mucosa,increased
same,overall cellularity of the ventral tongue over time (FIG. 6),oral mucosa,increased
same,corrected crypts/circumference,[1]; [2],3.8
same,no. crypts/circumference,[1]; [2],6.8
same,corrected crypts/circumference,[1]; [3],2.6 and 6.1 and 3.6 and 4.3 and 2.5
same,no. crypts/circumference,[1]; [3],4.8 and 10.7 and 6.6 and 7.2 and 4.5
same,corrected crypts/circumference,[1]; [4],3.2
same,no. crypts/circumference,[1]; [4],5.6
same,corrected crypts/circumference,[1]; [5],3.0 and 3.6 and 2.5 and 2.1 and 4.8
same,no. crypts/circumference,[1]; [5],5.5 and 6.4 and 4.3 and 3.8 and 8.0
same,Protection Factor,"[1]; 50 mg foscarnet -1 hr, 1, 2, 3 day",1.52
same,more crypts compared to mice treated with vehicle alone,"[1]; 13 Gy, 50 mg/kg foscarnet",~50%
same,more small intestinal clonogenic stem cells survived,"[1]; 13 Gy, 50 mg/kg foscarnet",at least 50%
same,Protection Factor,"[1]; 100 mg foscarnet -1 hr, 1, 2, 3 day",1.28
same,numbers of intestinal crypts after exposure to radiation,"[1]; Groups 1 and 2 (50 mg foscarnet and 100 mg foscarnet), 13 Gy",increased numbers of intestinal crypts
